Assay results as given in ChEMBL document CHEMBL3124763.
Calls of active or inactive are those of the source. No cut-off for these calls is given here. Where a SMILES comes first, the peptide text is derived from it. The star is where a group is joined. Decanoyl = CCCCCCCCCC(=O)*; CH2Cl = ClC*

Biological target: Furin (Homo sapiens) (UniProt P09958)
Test: Inhibition of furin in human HEK293FT cells assessed as HA5 maturation at 25 uM after 48 hrs by Western blotting analysis
Type: cell-based

Chain of Furin (Homo sapiens) (P09958 whole entry): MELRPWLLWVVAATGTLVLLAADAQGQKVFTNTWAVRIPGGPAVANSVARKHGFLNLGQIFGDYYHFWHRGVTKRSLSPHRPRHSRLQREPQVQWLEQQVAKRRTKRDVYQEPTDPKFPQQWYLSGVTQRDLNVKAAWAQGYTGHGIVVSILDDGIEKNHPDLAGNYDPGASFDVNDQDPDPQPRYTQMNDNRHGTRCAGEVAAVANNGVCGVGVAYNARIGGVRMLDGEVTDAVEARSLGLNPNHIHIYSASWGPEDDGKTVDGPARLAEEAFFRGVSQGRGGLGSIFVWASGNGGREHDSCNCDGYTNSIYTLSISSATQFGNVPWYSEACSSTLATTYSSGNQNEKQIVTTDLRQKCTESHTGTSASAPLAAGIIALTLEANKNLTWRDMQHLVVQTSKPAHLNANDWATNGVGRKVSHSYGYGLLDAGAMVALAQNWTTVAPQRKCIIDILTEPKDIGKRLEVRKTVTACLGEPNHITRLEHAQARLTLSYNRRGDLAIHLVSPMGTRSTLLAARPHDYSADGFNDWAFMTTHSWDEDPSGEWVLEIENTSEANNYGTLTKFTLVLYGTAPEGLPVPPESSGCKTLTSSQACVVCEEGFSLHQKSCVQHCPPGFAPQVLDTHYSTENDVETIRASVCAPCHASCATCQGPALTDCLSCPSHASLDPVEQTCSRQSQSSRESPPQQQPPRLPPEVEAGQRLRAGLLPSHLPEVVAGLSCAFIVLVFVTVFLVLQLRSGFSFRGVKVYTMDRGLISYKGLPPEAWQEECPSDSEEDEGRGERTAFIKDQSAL

CCCCCCCCCC(=O)N[C@@H](CCCNC(=N)N)C(=O)N[C@H](C(=O)N[C@@H](CCCCN)C(=O)N[C@@H](CCCNC(=N)N)C(=O)CCl)C(C)C (Decanoyl-RVKR-CH2Cl)
inhibition: Active
